Assays:
Assay type in all cases: cell-based
IKZF1 (Ikaros) = IKZF1 (Ikaros) (Homo sapiens (Human), UniProt Q13422+Q96SW2); assay: IKZF1 reporter degradation assay (HEK 293T IKZF1-mNeonGreen reporter cell line); settings: HEK 293T reporter cells, 24 hour incubation
Source text: (§1) Polycistronic plasmids were constructed for the mammalian expression of fluorescent reporter fusions of human transcription factors IKZF1 (Ikaros), IKZF2 (Helios), and IKZF3 (Aiolos). The respective protein sequences had their C-terminal end joined to a GGGGS linker repeated three times followed by mNeonGreen, P2A sequence, and mScarlet. The DNA sequences of the open reading frames are as follows:
(§2) IKZF1, IKZF2, and IKZF3 constructs were cloned into the UCOE Hygromycin expression vectors (Millipore Sigma). Reporter constructs were transfected using cationic lipid reagents into adherent HEK 293T cells and stable integrants were selected by treatment with 200 μg/mL hygromycin B. Clonal populations were obtained from the population of stable integrants either by limiting dilution or fluorescence activated cell sorting.
(§3) The clonal stable cell lines were maintained under constant 200 μg/mL hygromycin B selection while being passaged for use in the degradation assays. […] The fluorescence intensity of the IKZF1/2/3-mNeonGreen (FITC channel) and mScarlet (PE channel) reporters were routinely analyzed by flow cytometry to confirm consistent expression levels between experiments.
(§4) The IKZF1/IKZF2/IKZF3 degradation assays were carried out by harvesting the HEK 293T reporter cell lines and resuspending the cells in media formulated for reduced background fluorescence (FluoroBrite; Thermo Fisher). The respective cell lines were seeded at a density of 4000 cells/well into black-walled 384-well optical grade assay tissue culture plates. The cells were incubated overnight at 37° C. to allow for attachment to the assay plate. Dilutions of the compounds were prepared in DMSO from 10 mM compound stocks. The assay plates were treated with appropriate concentrations of the compounds by dispensing the DMSO dilutions in quadruplicate wells with an upper limit of 0.5% final DMSO.
(§5) After 24 hour incubation with the compounds, the assay plates were imaged on an ImageXpress Pico microscopy system (cells maintained at 37° C. during imaging) to obtain the fluorescent readouts. The assay plates were imaged in the FITC and Tetramethylrhodamine (TRITC) channels to obtain the mNeonGreen fluorescence intensity (reporter degradation data) and mScarlet fluorescence intensity (for cell segmentation). 293T-IKZF1 and 293T-IKZF3 reporter cell lines were imaged with exposures of 500 milliseconds (ms) for both FITC and TRITC channels, while the 293T-IKZF2 reporter cell line was imaged with exposures of 1000 ms for FITC and 1250 ms for TRITC. The resulting data was analyzed with Cell Reporter Xpress software using the 2-channel cell scoring analysis with a “percent positive” readout. The TRITC channel was selected for the “nuclei” segmentation with a threshold of 20 while the FITC channel was selected for the “Marker 1” segmentation and a threshold of 100 for the IKZF and IKZF3 reporter lines. […] The minimum segmentation width was set to 6 micrometers and the maximum segmentation width was set to 15 micrometers for all cell lines. The DC50 calculations were determined by regression to best fit four-parameter logistic curves using GraphPad Prism.

IKZF3 (Aiolos) = IKZF3 (Aiolos) (Homo sapiens (Human), UniProt Q96SW2+Q9UKT9); assay: IKZF3 reporter degradation assay (HEK 293T IKZF3-mNeonGreen reporter cell line); settings: HEK 293T reporter cells, 24 hour incubation
Source text: as §1, §2, §3, §4, §5

IKZF2 (Helios) = IKZF2 (Helios) (Homo sapiens (Human), UniProt Q96SW2+Q9UKS7); assay: IKZF2 reporter degradation assay (HEK 293T IKZF2-mNeonGreen reporter cell line); settings: 24 hour incubation; for inhibition at 1 µM: HEK-293T, 24 h
Source text: as §1, §2, §3, §4, §5

GSPT1 = GSPT1 (Homo sapiens (Human), UniProt P15170+Q96SW2); assay: GSPT1 reporter degradation assay (HEK293 hGSPT1 HiBiT-tagged cells); settings: 24 hour incubation
Method: HEK293_hGSPT1_HiBiT-tagged cells were generated using CRISPR-Cas12a technology. Briefly, ˜400,000 HEK293 cells were transiently co-transfected with precomplexed ribonuclear proteins (RNPs) consisting of […] of crRNA (IDT), […] of Cas12a protein (IDT), 3 μg of ssODN donor (IDT; AltRTM modifications), 78 pmol of electroporation enhancer (IDT), and 200 ng of pMaxGFP (Lonza). The transfection was performed via nucleofection (Lonza, 4D-Nucleofector X-unit) using solution P3 and program CM-130 in a (20 μL) cuvette. Five days post-nucleofection, cells were single-cell-sorted for GFP+ (transfected) cells by FACs in 96-well plates and clonally selected. Clones were screened and verified for the desired modification via targeted deep sequencing using gene-specific primers with partial Illumina adapter overhangs as previously described. In brief, clonal cell pellets were harvested, lysed, and used to generate gene-specific amplicons with partial Illumina adapters in PCR #1. Amplicons were indexed in PCR #2 and pooled with other targeted amplicons for other loci to create sequence diversity. Additionally, 10% PhiX sequencing control V3 (Illumina) was added to the pooled amplicon library prior to running the sample on a Miseq Sequencer System (Illumina) to generate paired 2×250 bp reads. Samples were demultiplexed using the index sequences, fastq files were generated, and NGS analysis was performed using CRIS.py.
The GSTP1 degradation assay was carried out by harvesting the HEK 293T reporter cell lines and resuspending the cells in media formulated for reduced background fluorescence (FluoroBrite; Thermo Fisher). The respective cell lines were seeded at a density of 8,000 cells/well into white-opaque 384-well optical grade assay tissue culture plates (Greiner 781080-20). The cells were incubated overnight at 37° C. to allow for attachment to the assay plate. Dilutions of the compounds were prepared in DMSO from 10 mM compound stocks. […] Plates were centrifuged at 320×g for 2 minutes at room temperature, and subsequently incubated at 37° C.
After 24 hour incubation with the compounds, the plates were allowed to cool to room temperature for 10 minutes. 30 μL of HiBiT lytic buffer+1:50 HiBiT substrate Solution were added to each well. Plates were centrifuged at 320×g for 2 minutes at room temperature and then incubated with shaking at room temperature for 10 minutes covered with foil. Plates were read on a CLARIOstar microplate reader (BMG LabTech), measuring at 450 nm (donor emission) and 610 nm or 630 nm (acceptor emission). The DC50 values were determined by regression to best fit four-parameter logistic curves using GraphPad Prism.

[1] = Table 3, HEK 293T reporter cells
[2] = second (untitled) table after Table 3

Chain of IKZF2 (Helios) (Q9UKS7 whole entry): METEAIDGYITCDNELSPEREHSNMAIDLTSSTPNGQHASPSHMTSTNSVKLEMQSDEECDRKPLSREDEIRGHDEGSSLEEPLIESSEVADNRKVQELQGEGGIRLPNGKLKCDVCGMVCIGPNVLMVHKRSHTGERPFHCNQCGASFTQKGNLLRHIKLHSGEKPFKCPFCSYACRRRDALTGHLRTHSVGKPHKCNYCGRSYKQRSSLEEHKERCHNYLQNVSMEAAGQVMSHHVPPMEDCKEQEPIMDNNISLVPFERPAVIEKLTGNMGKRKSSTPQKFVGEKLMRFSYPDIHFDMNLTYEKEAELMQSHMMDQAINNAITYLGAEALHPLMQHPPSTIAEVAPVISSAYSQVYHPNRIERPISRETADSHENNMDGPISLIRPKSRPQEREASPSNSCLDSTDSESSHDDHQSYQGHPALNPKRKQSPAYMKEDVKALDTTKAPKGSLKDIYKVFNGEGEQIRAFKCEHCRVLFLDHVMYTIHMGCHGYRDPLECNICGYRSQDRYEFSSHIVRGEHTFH
Chain of IKZF2 (Helios) (Q96SW2 whole entry): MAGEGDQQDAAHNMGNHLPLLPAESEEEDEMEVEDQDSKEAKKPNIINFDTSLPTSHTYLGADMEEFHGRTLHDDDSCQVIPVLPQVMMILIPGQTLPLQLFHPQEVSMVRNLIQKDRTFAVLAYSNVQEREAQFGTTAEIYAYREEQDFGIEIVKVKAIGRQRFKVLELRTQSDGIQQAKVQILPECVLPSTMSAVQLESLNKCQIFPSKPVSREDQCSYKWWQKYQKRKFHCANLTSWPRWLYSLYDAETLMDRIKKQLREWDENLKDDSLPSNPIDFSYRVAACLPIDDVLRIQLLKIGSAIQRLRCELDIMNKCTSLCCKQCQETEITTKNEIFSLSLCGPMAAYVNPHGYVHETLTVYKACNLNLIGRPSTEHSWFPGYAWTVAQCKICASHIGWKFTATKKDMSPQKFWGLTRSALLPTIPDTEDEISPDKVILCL
Chain of IKZF2 (Helios) (Q16531 whole entry partner): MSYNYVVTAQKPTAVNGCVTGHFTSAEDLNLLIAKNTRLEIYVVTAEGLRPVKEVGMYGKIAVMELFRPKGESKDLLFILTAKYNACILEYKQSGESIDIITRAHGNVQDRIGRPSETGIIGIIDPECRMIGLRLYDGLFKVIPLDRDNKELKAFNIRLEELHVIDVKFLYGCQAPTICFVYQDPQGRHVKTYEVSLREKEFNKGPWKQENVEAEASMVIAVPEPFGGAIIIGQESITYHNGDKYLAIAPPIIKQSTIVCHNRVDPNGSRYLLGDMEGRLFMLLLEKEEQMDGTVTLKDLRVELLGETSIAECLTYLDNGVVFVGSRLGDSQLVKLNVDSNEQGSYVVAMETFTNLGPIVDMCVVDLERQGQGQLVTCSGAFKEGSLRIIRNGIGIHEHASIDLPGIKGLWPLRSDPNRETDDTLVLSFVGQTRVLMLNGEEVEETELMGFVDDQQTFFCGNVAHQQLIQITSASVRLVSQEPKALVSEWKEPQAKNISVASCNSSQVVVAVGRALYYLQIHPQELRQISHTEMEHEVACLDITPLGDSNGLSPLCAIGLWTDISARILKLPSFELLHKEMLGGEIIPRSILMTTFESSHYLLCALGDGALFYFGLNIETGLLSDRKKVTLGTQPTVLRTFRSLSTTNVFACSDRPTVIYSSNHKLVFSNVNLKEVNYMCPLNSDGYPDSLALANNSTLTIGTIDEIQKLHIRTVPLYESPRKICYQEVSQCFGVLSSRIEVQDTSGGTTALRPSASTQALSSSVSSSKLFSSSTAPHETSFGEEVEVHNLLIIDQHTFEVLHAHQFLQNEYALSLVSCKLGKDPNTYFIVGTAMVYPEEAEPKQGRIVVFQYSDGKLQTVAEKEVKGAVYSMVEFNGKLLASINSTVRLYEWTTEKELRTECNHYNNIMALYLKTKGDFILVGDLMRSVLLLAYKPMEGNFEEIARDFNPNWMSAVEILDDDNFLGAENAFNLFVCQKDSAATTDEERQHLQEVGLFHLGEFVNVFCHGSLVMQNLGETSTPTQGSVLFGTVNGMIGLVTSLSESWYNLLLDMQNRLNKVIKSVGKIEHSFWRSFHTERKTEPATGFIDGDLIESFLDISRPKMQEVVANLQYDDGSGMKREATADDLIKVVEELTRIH
Chain of IKZF3 (Aiolos) (Q9UKT9 whole entry): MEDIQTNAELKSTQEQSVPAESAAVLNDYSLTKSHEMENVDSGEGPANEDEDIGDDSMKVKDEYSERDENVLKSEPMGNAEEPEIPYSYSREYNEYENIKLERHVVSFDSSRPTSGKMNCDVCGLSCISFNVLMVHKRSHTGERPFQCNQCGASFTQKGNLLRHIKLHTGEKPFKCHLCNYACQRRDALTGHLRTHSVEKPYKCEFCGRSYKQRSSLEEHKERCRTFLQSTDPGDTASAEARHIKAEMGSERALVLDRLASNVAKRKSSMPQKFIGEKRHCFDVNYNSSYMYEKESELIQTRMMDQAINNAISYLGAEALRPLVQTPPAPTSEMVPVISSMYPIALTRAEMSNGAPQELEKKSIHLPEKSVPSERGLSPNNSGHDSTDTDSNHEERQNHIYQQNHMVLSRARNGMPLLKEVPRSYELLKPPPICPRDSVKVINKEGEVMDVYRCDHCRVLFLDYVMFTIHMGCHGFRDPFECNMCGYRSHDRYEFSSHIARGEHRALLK
Chain of IKZF3 (Aiolos) (Q96SW2 whole entry): as the sequence (Q96SW2 whole entry) above
Chain of IKZF3 (Aiolos) (Q16531 whole entry partner): as the sequence (Q16531 whole entry partner) above
Chain of GSPT1 (P15170 whole entry): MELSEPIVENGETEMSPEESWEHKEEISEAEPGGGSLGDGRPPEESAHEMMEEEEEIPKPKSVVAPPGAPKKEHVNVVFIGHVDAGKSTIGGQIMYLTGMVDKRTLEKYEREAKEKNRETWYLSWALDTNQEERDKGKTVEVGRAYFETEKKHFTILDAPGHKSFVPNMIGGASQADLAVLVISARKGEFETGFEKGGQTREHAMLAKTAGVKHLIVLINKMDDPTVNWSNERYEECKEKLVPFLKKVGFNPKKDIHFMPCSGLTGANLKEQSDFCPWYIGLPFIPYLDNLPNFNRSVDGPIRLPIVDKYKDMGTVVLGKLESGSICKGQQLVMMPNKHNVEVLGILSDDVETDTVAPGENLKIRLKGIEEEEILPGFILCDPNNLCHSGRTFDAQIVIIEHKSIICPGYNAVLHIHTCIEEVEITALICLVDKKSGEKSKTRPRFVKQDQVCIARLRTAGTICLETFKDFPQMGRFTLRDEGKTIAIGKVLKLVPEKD
Chain of GSPT1 (Q96SW2 whole entry): as the sequence (Q96SW2 whole entry) above
Chain of GSPT1 (Q16531 whole entry partner): as the sequence (Q16531 whole entry partner) above
Chain of IKZF1 (Ikaros) (Q13422 whole entry, the tested form may be a part): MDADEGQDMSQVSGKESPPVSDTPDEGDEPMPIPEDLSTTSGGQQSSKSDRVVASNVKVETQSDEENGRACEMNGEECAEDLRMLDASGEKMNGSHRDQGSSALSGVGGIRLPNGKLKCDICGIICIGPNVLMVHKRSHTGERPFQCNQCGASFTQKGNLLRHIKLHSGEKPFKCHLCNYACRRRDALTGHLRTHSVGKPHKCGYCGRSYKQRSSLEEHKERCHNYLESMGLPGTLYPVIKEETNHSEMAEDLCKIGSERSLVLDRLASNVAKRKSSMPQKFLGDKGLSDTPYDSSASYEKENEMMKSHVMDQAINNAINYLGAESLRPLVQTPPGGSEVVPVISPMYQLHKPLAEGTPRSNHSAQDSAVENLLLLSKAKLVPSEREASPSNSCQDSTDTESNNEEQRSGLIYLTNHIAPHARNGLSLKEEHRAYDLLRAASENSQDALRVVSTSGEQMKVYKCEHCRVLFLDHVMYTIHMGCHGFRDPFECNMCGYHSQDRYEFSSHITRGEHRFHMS
Chain of IKZF1 (Ikaros) (Q96SW2 whole entry, the tested form may be a part): as the sequence (Q96SW2 whole entry) above
Chain of IKZF1 (Ikaros) (Q16531 whole entry partner, the tested form may be a part): as the sequence (Q16531 whole entry partner) above

Row | DC50 (IKZF1 (Ikaros)) [µM] | DC50 (IKZF3 (Aiolos)) [µM] | DC50 (IKZF2 (Helios); HEK 293T reporter cells) [µM] | inhibition at 1 µM (IKZF2 (Helios); [1]) [%] | inhibition at 1 µM (IKZF2 (Helios); [2]) [%] | DC50 (GSPT1) [µM] | Structure (SMILES)
1 | > 30 | > 30 | 0.02 | 84.1 | 84.1 | > 30 | O=C1CCC(N2Cc3cc(O[C@H]4CCCC[C@@H]4N4CC(C5CCC5)C4)c(F)cc3C2=O)C(=O)N1 (stereo partly drawn) [Compound 27, 3-(5-(((1S,2S)-2-(3-cyclobutylazetidin-1-yl)cyclohexyl)oxy)-6-fluoro-1-oxoisoindolin-2-yl)piperidine-2,6-dione]
2 | > 30 | > 30 | 0.003 | 85 | 85 | > 30 | O=C1CCC(N2Cc3cc(O[C@H]4CCCC[C@@H]4N4CC(C5CCCC(F)(F)C5)C4)ccc3C2=O)C(=O)N1 (stereo partly drawn) [Compound 20, 3-(5-(((1S,2S)-2-(3-(3,3-difluorocyclohexyl)azetidin-1-yl)cyclohexyl)oxy)-1-oxoisoindolin-2-yl)piperidine-2,6-dione]
3 | > 30 | > 30 | 0.012 | 67.7 | 67.7 | > 30 | O=C1CCC(N2Cc3cc(O[C@H]4CCCC[C@@H]4N4CC(C5CC5)C4)ccc3C2=O)C(=O)N1 (stereo partly drawn) [Compound 3, 3-(5-(((1S,2S)-2-(3-cyclopropylazetidin-1-yl)cyclohexyl)oxy)-1-oxoisoindolin-2-yl)piperidine-2,6-dione]
4 | > 30 | > 30 | 0.004 | 85.1 | 85.1 | > 30 | O=C1CCC(N2Cc3cc(O[C@H]4CCCC[C@@H]4N4CC(C5CCCCC5)C4)ccc3C2=O)C(=O)N1 (stereo partly drawn) [Compound 1, 3-(5-(((1S,2S)-2-(3-cyclohexylazetidin-1-yl)cyclohexyl)oxy)-1-oxoisoindolin-2-yl)piperidine-2,6-dione]

Source: US20240287037A1, “CYCLOALKYL COMPOUNDS AND PHARMACEUTICAL COMPOSITIONS THAT MODULATE IKZF2” (Plexium, Inc., priority 2021, published 2024)
